# Experimental data published in publication PMC5781335, “Identification of danthron as an isoform-specific inhibitor of HEME OXYGENASE-1/cytochrome P450 reductase interaction with anti-tumor activity” (Journal of Biomedical Science, 2018).
# T1: heme oxygenase-1 (HO-1) (Homo sapiens, UniProt P09601)
# T1 construct: gene HMOX1; Luc-HO-1 (N-terminal luciferase fusion); with cytochrome P450 reductase (CPR-GFP)
# T1 sequence (P09601 1-288): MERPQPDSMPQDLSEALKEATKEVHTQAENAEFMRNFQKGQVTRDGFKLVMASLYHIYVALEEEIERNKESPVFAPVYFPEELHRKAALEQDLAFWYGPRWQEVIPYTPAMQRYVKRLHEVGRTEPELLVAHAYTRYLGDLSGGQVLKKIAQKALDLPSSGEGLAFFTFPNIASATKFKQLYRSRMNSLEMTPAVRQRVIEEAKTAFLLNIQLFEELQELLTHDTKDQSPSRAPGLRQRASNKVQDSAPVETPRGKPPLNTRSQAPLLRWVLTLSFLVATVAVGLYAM
# T1 sequence (P16435 2-677 partner): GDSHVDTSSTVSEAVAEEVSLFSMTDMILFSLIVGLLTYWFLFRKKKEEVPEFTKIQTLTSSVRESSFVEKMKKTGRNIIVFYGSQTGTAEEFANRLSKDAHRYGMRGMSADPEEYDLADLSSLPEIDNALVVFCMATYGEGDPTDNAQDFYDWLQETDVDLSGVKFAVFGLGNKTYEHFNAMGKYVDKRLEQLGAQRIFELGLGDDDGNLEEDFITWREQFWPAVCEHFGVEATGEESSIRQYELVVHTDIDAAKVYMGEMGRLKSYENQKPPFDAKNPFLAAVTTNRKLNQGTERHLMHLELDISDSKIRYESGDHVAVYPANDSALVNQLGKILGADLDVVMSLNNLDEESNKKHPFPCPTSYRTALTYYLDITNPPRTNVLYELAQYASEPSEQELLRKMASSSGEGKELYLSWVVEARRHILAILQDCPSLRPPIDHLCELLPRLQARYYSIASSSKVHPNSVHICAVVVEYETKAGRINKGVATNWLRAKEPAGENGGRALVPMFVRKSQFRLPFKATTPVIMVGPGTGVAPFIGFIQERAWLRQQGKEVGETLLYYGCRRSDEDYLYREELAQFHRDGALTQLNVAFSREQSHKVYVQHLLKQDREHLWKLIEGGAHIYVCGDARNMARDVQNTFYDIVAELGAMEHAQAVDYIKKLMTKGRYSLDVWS
# T2: heme oxygenase-1 (HO-1) (Homo sapiens, UniProt P09601)
# T2 construct: gene HMOX1; truncated human HO-1 (aa 13–260), C-terminal 6 x His-tag (pull-down); Luc-HO-1 (BRET); with cytochrome P450 reductase (CPR-GFP)
# T2 sequence (P09601 13-260): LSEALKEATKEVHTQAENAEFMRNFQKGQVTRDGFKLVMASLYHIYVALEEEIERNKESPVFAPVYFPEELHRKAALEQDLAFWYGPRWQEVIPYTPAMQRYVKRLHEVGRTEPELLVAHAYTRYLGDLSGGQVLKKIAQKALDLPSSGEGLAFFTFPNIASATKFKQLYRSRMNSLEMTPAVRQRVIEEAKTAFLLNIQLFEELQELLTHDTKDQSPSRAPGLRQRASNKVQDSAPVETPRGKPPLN
# T2 sequence (P16435 2-677 partner): T1 sequence (P16435 2-677 partner)
# T3: CPR construct with its carboxyl-terminus fused to GFP (CPR-GFP) (human, UniProt P16435 1-677)
# T3 construct: human cytochrome P450 reductase (CPR) cDNA subcloned with GFP2 cDNA into a pCMV-2 vector; BRET acceptor; bait on anti-GFP Sepharose in the pull-down; also called cytochrome P450 reductase; source: HEK293T, transfected; not shown: GFP2, C-terminal, kept
# T3 sequence (looked up): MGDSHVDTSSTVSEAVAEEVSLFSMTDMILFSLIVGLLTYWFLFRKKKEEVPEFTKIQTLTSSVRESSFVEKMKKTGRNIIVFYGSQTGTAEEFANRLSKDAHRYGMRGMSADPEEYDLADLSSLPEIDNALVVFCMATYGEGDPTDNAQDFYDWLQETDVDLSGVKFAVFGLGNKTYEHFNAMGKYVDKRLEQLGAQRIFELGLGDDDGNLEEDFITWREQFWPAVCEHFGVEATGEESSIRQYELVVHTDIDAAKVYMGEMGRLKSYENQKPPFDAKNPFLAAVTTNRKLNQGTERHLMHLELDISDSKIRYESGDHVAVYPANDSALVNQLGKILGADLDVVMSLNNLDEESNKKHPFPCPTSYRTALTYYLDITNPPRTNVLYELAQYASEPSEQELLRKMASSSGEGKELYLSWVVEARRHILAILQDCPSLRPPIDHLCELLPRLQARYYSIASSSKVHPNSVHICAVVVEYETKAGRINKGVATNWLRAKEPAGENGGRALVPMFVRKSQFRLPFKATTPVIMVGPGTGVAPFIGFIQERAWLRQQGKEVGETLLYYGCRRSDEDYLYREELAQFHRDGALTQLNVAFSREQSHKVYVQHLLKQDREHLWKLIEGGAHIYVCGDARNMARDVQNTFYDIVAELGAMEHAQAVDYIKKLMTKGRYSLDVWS
# B1: recombinant soluble His-tagged HO-2 (His-HO-2), human HO-2 construct (aa 33-288) (domain or fragment, UniProt P30519 33-288, looked up)
# chain: LSELLKEGTKEAHDRAENTQFVKDFLKGNIKKELFKLATTALYFTYSALEEEMERNKDHPAFAPLYFPMELHRKEALTKDMEYFFGENWEEQVQCPKAAQKYVERIHYIGQNEPELLVAHAYTRYMGDLSGGQVLKKVAQRALKLPSTGEGTQFYLFENVDNAQQFKQLYRARMNALDLNMKTKERIVEEANKAFEYNMQIFNELDQAGSTLARETLEDGFPVHDGKGDMRKCPFYAAEQDKGALEGSSCPFRTAM
# notes: human heme oxygenase-2, construct aa 33-288, in pQE-60 vector; not shown: His6, C-terminal, kept
# Key:
# heme oxygenase-1 (HO-1) [1] = biological target: T1, heme oxygenase-1 (HO-1); test: cell-based BRET inhibition of HO-1/CPR interaction in HEK293T
# heme oxygenase-1 (HO-1) [2] = biological target: T2, heme oxygenase-1 (HO-1); test: pull-down of purified His-HO-1 by resin-bound CPR-GFP ([…] danthron); IC50 from cell-based BRET
# [3] = biological target: T3, CPR construct with its …; test: pull-down; CPR-GFP immunoprecipitated from HEK293T lysate on anti-GFP-affinity Sepharose, washed, incubated with 1 ug His-HO-1 or His-HO-2 in 100 ul buffer A (20 mM Tris-HCl pH 7.4, 100 mM NaCl) at room temperature for 1 h, without or with 10 uM danthron or anthrarufin; blot with anti-His and anti-GFP; conditions: both partners purified
IC50 (heme oxygenase-1 (HO-1) [1]),further results,Molecule
10.1 µM,–,"O=C1c2ccccc2C(=O)c2c(O)cccc21 [1-hydroxyanthra-9,10-quinone]"
10.4 µM,–,"O=C1c2cccc(O)c2C(=O)c2c(O)ccc(O)c21 [1,4,5-trihydroxyanthra-9,10-quinone]"
–,IC50 (heme oxygenase-1 (HO-1) [2]): 2.09 µM,O=C1c2cccc(O)c2C(=O)c2c(O)cccc21 [danthron]
–,binding result [3]: binds,B1
